Data: PubChem BioAssay AID2305 (GlaxoSmithKline (GSK), 2010)

Tested on: P. falciparum 3D7 growth, pLDH absorbance
Experiment: blood-stage malaria parasite growth potency – strain 3D7, dose response (AID 2305)

| Structure (SMILES) | IC50 [nM] |
| --- | --- |
| O=C(Nc1cccc(-c2ccc(-c3nc4ccc(F)cc4[nH]3)cc2)c1)Nc1ccc(Cl)c(Cl)c1 | 140 |
| Cc1cccc2[nH]c(-c3ccc(-c4ccc(CNC(C)C)cc4)cc3)nc12 | 680 |
| CC(=O)Nc1ccc(OCCCCN(Cc2ccccc2C(F)(F)F)c2ccc(C#N)c(C(F)(F)F)c2)cc1 | 1390 |
| O=[N+]([O-])c1cccc(NC(=S)N2CCCN(Cc3ccc(C(F)(F)F)cc3)CC2)c1 | 1200 |
| Nn1c(=O)oc2ccc(Cl)cc2c1=O | 190 |
| O=C(/C=C/c1ccc(Cl)c(Cl)c1)NC1CCN(Cc2ccc(O)cc2)C1 (centres undefined) | 950 |
| CN(C)CCCOc1ccccc1CN1CC[C@H](NC(=O)c2ccc(Cl)c(Cl)c2)C1 | 1110 |
| CCCCc1cc(=O)oc2cc(C)cc(OCc3ccccc3F)c12 | 1030 |
| O=C(NCCCCN1CCC(c2ccc3c(c2O)CCCC3)CC1)c1ccc(NC(=O)c2ccc(Cl)cc2)cc1 | 240 |
| CN1CCC(NC(=O)c2cccc(Nc3cc(Nc4cccc(Br)c4)ncn3)c2)CC1 | 1010 |
| CC(C)c1ccc(NC(=O)c2ccc(CN3CCCN(CC4CCCCC4)CC3)cc2)cc1 | 620 |
| NC(=O)c1cccc(C(=O)Nc2cccc(-c3csc(-c4nc5ccccc5[nH]4)c3)c2)c1 | 130 |
| CCc1cn2c3c(cc(C(=O)N[C@@H](Cc4cc(F)cc(F)c4)[C@H](O)CNC4CCOCC4)cc13)N(C)S(=O)(=O)CC2 | 30 |
| N=c1sc2ccccc2n1CC(O)c1ccc(Cl)c(Cl)c1 (centres undefined) | 800 |
| O=C(Nc1cccc(-c2nn3ncccc3c2-c2ccnc(Nc3cccnc3)n2)c1)c1c(F)cccc1F | 530 |
| O=C(NCC1CCN(CCN2CCC(c3cn(CCO)c4ccccc34)CC2)CC1)c1ccc(-c2ccc(C(F)(F)F)cc2)cc1 | 440 |
| Cc1ccc(CC(C)NCC(O)c2cccc(C#N)c2)cc1 (centres undefined) | 940 |
| COc1ccccc1-c1ccc(C(=O)NCC2CCCN(Cc3cccc(C(F)(F)F)c3)C2)s1 (centres undefined) | 1540 |
| CS(=O)(=O)N1CC2(CCN(CCC(NC(=O)/C=C/c3ccccc3)c3ccc(Cl)c(Cl)c3)CC2)c2ccccc21 (centres undefined) | 780 |
| CCCCOc1ccc(-n2c(Nc3ccccc3)nc3cc(S(N)(=O)=O)ccc32)cc1 | 890 |
| NC1CCN(CCc2ccc(NS(=O)(=O)c3cccc4ccccc34)cc2)CC1 | 1700 |
| Cc1cccc2[nH]c(-c3cccc(-c4cccc(NC(=O)C5CC(=O)Nc6ccccc65)c4)c3)nc12 (centres undefined) | 60 |
| CNS(=O)(=O)c1ccc(NC(=O)c2cc(-c3cccnc3)nc3ccc(Br)cc23)cc1 | 910 |
| c1cc(CNCC2CCCO2)cc(-c2cccc(-c3nc4ccccc4[nH]3)c2)c1 (centres undefined) | 860 |
| CCn1c(Sc2ccc([N+](=O)[O-])c(C#N)c2)nnc1-c1ccc(Cl)cc1 | 1000 |

| Structure (SMILES) | IC50 [nM] |
| --- | --- |
| COc1ccc2nccc([C@@H](O)CN3CCC(NCc4cc5ccccc5[nH]c4=O)CC3)c2c1 | 180 |
| CN1CCC(NCc2cccc(-c3ccc(S(=O)(=O)NCCN4CCCC4)s3)c2)CC1 | 930 |
| Nc1nc(N)c2c(Oc3cccc(Cl)c3)cccc2n1 | 470 |
| Oc1cc(Nc2ccnc3cc(-c4cccc(CN5CCOCC5)c4)ccc23)c(F)cc1Cl | 210 |
| C[C@H](Cc1ccc(Oc2ccc(C[C@@H](C)NC[C@H](O)c3cccc(Cl)c3)cc2)cc1)NC[C@H](O)c1cccc(Cl)c1 | 560 |
| c1ccc(Nc2nc(-c3ccccn3)cs2)nc1 | 1150 |
| CCNc1cc(C(=O)N[C@@H](Cc2ccccc2)[C@H](O)CNC2CCC(C(C)(C)C)CC2)cc(N2CCCC2=O)c1 (some centres undefined) | 440 |
| Cc1cc(C)c(O)c(-c2cc(C(=O)Nc3ccc(S(=O)(=O)N4CC(C)OC(C)C4)cc3)[nH]n2)c1 (centres undefined) | 660 |
| C=CCOc1ccc2ccccc2c1CNCCCCCCNCc1c(OCC=C)ccc2ccccc12 | 860 |
| O=C(NCc1cccc(F)c1)Nc1cccc(-c2cccc(-c3nc4ccc(C(F)(F)F)cc4[nH]3)c2)c1 | 330 |
| O=C(NC(NC(=S)Nc1ccc([N+](=O)[O-])cc1)C(Cl)(Cl)Cl)c1cccc(Cl)c1 (centres undefined) | 730 |
| O=C(/C=C/c1ccccc1F)NC1CCC(CCN2CCc3ccc(-c4cccnc4)cc3CC2)CC1 (centres undefined) | 900 |
| Cc1cc(OCCCN2CCCCC2C)ccc1NC(=O)COc1ccc(Cl)cc1C(=O)c1cc(Cl)cc(C#N)c1 (centres undefined) | 980 |
| c1ccc2c(c1)CN(CC1CC1)CC1(CCN(Cc3c[nH]c4cnccc34)CC1)O2 | 900 |
| Fc1ccc(C(OCC2CCCN(Cc3cccc4cccnc34)C2)c2ccc(F)cc2)cc1 (centres undefined) | 700 |
| COc1cc2nc(Nc3ccc4c(c3)OCCO4)nc(N)c2cc1OC | 470 |
| Cc1c(C(=O)NCc2ccncc2)sc2nc(-c3cccc([N+](=O)[O-])c3)cn12 | 910 |
| Cc1[nH]c(C)c(-c2ccc(Oc3ccc(F)cc3)cc2)c(=O)c1Br | 50 |
| CCN(CC)CCCNc1nccc(N2CCc3ncnc(Nc4ccc(OCc5cccc(F)c5)c(Cl)c4)c3C2)n1 | 110 |
| COc1cc(C(=O)NC2CC(C)(C)N(C)C(C)(C)C2)ccc1-c1cc2cc(Cl)c(Cl)cc2[nH]1 | 1140 |
| N#Cc1ccc(Sc2nnc(-c3ccccc3Cl)n2CC2CCCCC2)cc1[N+](=O)[O-] | 1160 |
| O=C(c1cccc(-c2ccc(-c3nc4ccc(C(F)(F)F)cc4[nH]3)cc2)c1)N1CCCCC1CN1CCC(O)C1 (centres undefined) | 470 |
| Cc1cccc2[nH]c(-c3ccc(-c4ccc(NC(=O)Nc5ccc(Cl)c(Cl)c5)cc4)s3)nc12 | 180 |
| CC(CN(C)C)C(=O)Nc1cccc(-c2ccc(-c3nc4ccc(F)cc4[nH]3)s2)c1 (centres undefined) | 800 |
